Values quoted from earlier work as cited in patent US12514832B2, “Methods for using low-dose colchicine after myocardial infarction” (INSTITUT DE CARDIOLOGIE DE MONTREAL, priority 2019, dated 2026).

Assays:
[1] = CIRT; cited from earlier work
interleukin-13 = interleukin-13 (Homo sapiens, UniProt P01584); conditions: CANTOS; cited from earlier work

Molecule	effect on cardiovascular outcomes or plasma markers of inflammation (in words) [1]	incidence of fatal infections versus placebo (in words) (interleukin-13)
CN(Cc1cnc2nc(N)nc(N)c2n1)c1ccc(C(=O)N[C@@H](CCC(=O)O)C(=O)O)cc1 [methotrexate]	did not affect cardiovascular outcomes or plasma markers of inflammation	–
canakinumab: injectable monoclonal antibody; anti-inflammatory studied in CANTOS	–	slightly higher incidence of fatal infections
